Where “and” joins values, the source holds several entries; their conditions need not be identical. Identical values can stand only once.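 Test compounds were applied to cells in 96-well plates for 48 hours at 5 doses. Abbreviation: GI50, concentration required for 50% inhibition of growth.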 Calls of active or inactive are those of the source. No stated cut-off is given here; in the data, active = GI50 up to about 1.1 µM and inactive = higher. Square brackets hold non-standard residues; d marks the D form. Peptide text beside a SMILES is read from it. * marks the point of attachment. ξ: configuration not given here. ξF = NC(Cc1ccccc1)C(=O)O; Cbz = O=C(OCc1ccccc1)*; Aib = CC(C)(N)C(=O)O
Legend:
Assay in all cases: NCI tumour cell line growth inhibition, 48 h
MDA-MB-435 = tested on: MDA-MB-435
BT-549 = tested on: BT-549
M14 = tested on: M14
SF-539 = tested on: SF-539
SK-MEL-5 = tested on: SK-MEL-5
OVCAR-3 = tested on: OVCAR-3
SNB-19 = tested on: SNB-19
HCT-116 = tested on: HCT-116
NCI-H522 = tested on: NCI-H522
UACC-257 = tested on: UACC-257
SK-MEL-28 = tested on: SK-MEL-28
RPMI-8226 = tested on: RPMI-8226
HL-60 = tested on: HL-60
NCI-H226 = tested on: NCI-H226
IGROV-1 = tested on: IGROV-1
OVCAR-5 = tested on: OVCAR-5
NCI-H460 = tested on: NCI-H460
UO-31 = tested on: UO-31
SNB-75 = tested on: SNB-75
HCC 2998 = tested on: HCC 2998

Measured: GI50

Cc1ccc(/C=C2/N/C(=N\N=C/C(O)C(O)C(O)CO)NC2=O)cc1 (stereo unspecified)
inactive: MDA-MB-435 > 100 µM | BT-549 > 100 µM | M14 > 100 µM | SF-539 > 100 µM | SK-MEL-5 > 100 µM | OVCAR-3 52.4 µM and 69.8 µM | SNB-19 > 100 µM | HCT-116 > 100 µM | NCI-H522 71.6 µM | UACC-257 > 100 µM | SK-MEL-28 > 100 µM | RPMI-8226 > 100 µM | HL-60 56.5 µM and 56.4 µM | NCI-H226 63.5 µM and 66.2 µM | IGROV-1 > 100 µM | OVCAR-5 > 100 µM | NCI-H460 > 100 µM | UO-31 > 100 µM | SNB-75 > 100 µM

O=C1C2C(c3ccccc3)NC(c3ccccc3)C1C(c1ccccc1)NC2c1ccccc1 (stereo unspecified)
inactive: MDA-MB-435 > 100 µM | BT-549 > 100 µM | M14 > 100 µM | SF-539 > 100 µM | SK-MEL-5 > 100 µM | OVCAR-3 > 100 µM | SNB-19 > 100 µM | HCT-116 > 100 µM | NCI-H522 > 100 µM | UACC-257 > 100 µM | SK-MEL-28 > 100 µM | RPMI-8226 > 100 µM | HL-60 > 100 µM | NCI-H226 > 100 µM | IGROV-1 > 100 µM | OVCAR-5 > 100 µM | NCI-H460 > 100 µM | UO-31 > 100 µM | SNB-75 > 100 µM

CC(C)(NC(=O)OCc1ccccc1)C(=O)NC(Cc1ccccc1)C(=O)O (stereo unspecified) (Cbz-[Aib]-[ξF]-OH)
inactive: MDA-MB-435 > 100 µM | BT-549 > 100 µM | M14 > 100 µM | SF-539 > 100 µM | SK-MEL-5 > 100 µM | OVCAR-3 > 100 µM | SNB-19 > 100 µM | HCT-116 > 100 µM | NCI-H522 > 100 µM | UACC-257 > 100 µM | SK-MEL-28 > 100 µM | RPMI-8226 > 100 µM | NCI-H226 > 100 µM | IGROV-1 > 100 µM | OVCAR-5 > 100 µM | NCI-H460 > 100 µM | UO-31 > 100 µM | SNB-75 > 100 µM

Cc1ccc([N+](=O)[O-])c2c(NCCNC(=O)Cn3ccnc3[N+](=O)[O-])ccnc12
inactive: MDA-MB-435 94.6 µM | M14 > 100 µM | SF-539 35.5 µM | SK-MEL-5 17.8 µM | OVCAR-3 23.2 µM | SNB-19 28.9 µM | HCT-116 43.7 µM | HCC 2998 39.6 µM | NCI-H522 15.5 µM | UACC-257 29.1 µM | SK-MEL-28 57.7 µM | RPMI-8226 96.6 µM | HL-60 > 100 µM | NCI-H226 26.2 µM | IGROV-1 25.6 µM | OVCAR-5 35.5 µM | NCI-H460 28.2 µM | UO-31 > 100 µM | SNB-75 > 100 µM

COC(=O)C1=C(C)NC2=C(C(=O)c3ccccc32)C1c1c[nH]nc1-c1ccccc1 (stereo unspecified)
inactive: MDA-MB-435 57.4 µM | BT-549 > 100 µM | M14 > 100 µM | SF-539 29.9 µM | SK-MEL-5 31.8 µM | OVCAR-3 48.6 µM | SNB-19 41.5 µM | HCT-116 > 100 µM | NCI-H522 19.7 µM | UACC-257 70.5 µM | SK-MEL-28 49.4 µM | RPMI-8226 49 µM | HL-60 39.8 µM | NCI-H226 41.2 µM | IGROV-1 20.2 µM | OVCAR-5 > 100 µM | NCI-H460 51.9 µM | UO-31 > 100 µM | SNB-75 13.3 µM

CCOC(=O)C(Cl)(Cl)/S(=N\S(=O)(=O)c1ccccc1)NC(=O)c1ccccc1 (stereo unspecified)
active: HL-60 0.65 µM
inactive: MDA-MB-435 > 100 µM | BT-549 > 100 µM | M14 > 100 µM | SF-539 > 100 µM | SK-MEL-5 > 100 µM | OVCAR-3 > 100 µM | SNB-19 > 100 µM | HCT-116 > 100 µM | UACC-257 > 100 µM | SK-MEL-28 > 100 µM | RPMI-8226 > 100 µM | NCI-H226 > 100 µM | IGROV-1 > 100 µM | OVCAR-5 > 100 µM | NCI-H460 > 100 µM | UO-31 > 100 µM | SNB-75 > 100 µM

O=C1C(CO)=C[C@@H](O)[C@H]2O[C@@H]12 [EPOXYDON]
inactive: MDA-MB-435 25.2 µM | BT-549 98.9 µM | M14 > 100 µM | SK-MEL-5 > 100 µM | OVCAR-3 > 100 µM | HCT-116 31.1 µM | NCI-H522 > 100 µM | SK-MEL-28 > 100 µM | RPMI-8226 33.3 µM | HL-60 26 µM | NCI-H226 > 100 µM | IGROV-1 > 100 µM | OVCAR-5 > 100 µM | NCI-H460 53.1 µM | UO-31 > 100 µM | SNB-75 37.4 µM

CCOC(=O)c1sc2c(c1OC(=O)c1ccc(Cl)cc1Cl)c(=O)n(-c1ccccc1)c(=S)n2-c1ccccc1
inactive: MDA-MB-435 > 51.2 µM | M14 29.4 µM | SF-539 25.9 µM | SK-MEL-5 11.7 µM | OVCAR-3 21 µM | SNB-19 > 24 µM | HCT-116 8.13 µM | HCC 2998 24.5 µM | NCI-H522 4.74 µM | UACC-257 35.3 µM | SK-MEL-28 > 76.4 µM | RPMI-8226 4.58 µM | HL-60 4.29 µM | NCI-H226 6.73 µM | IGROV-1 4.06 µM | OVCAR-5 35.4 µM | NCI-H460 5.24 µM | UO-31 13.4 µM | SNB-75 7.01 µM

O=C1CCC(c2ccccc2)(c2ccccc2)CC1
inactive: MDA-MB-435 > 100 µM | BT-549 83.2 µM | M14 65.8 µM | SK-MEL-5 30.7 µM | OVCAR-3 > 100 µM | SNB-19 > 100 µM | HCT-116 41.3 µM | NCI-H522 71.3 µM | UACC-257 > 100 µM | SK-MEL-28 > 100 µM | RPMI-8226 30.7 µM | HL-60 33.5 µM | NCI-H226 36.6 µM | IGROV-1 > 100 µM | OVCAR-5 > 100 µM | NCI-H460 > 100 µM | UO-31 65 µM | SNB-75 > 100 µM

CCN(CC)/[N+]([O-])=N/OS(=O)(=O)N(C)C
inactive: MDA-MB-435 > 100 µM | M14 > 100 µM | SF-539 > 100 µM | SK-MEL-5 > 100 µM | OVCAR-3 > 100 µM | SNB-19 > 100 µM | HCT-116 > 100 µM | HCC 2998 > 100 µM | NCI-H522 > 100 µM | UACC-257 > 100 µM | SK-MEL-28 > 100 µM | RPMI-8226 > 100 µM | HL-60 > 100 µM | NCI-H226 > 100 µM | IGROV-1 > 100 µM | OVCAR-5 > 100 µM | NCI-H460 > 100 µM | SNB-75 > 100 µM

CN1CCN(c2ccc3[nH]c(-c4ccc5[nH]c(CCCc6ccc(N(CCCl)CCCl)cc6)nc5c4)nc3c2)CC1
inactive: MDA-MB-435 > 100 µM | M14 > 100 µM | SF-539 > 100 µM | SK-MEL-5 > 100 µM | SNB-19 > 100 µM | HCT-116 > 100 µM | HCC 2998 > 100 µM | NCI-H522 > 100 µM | UACC-257 > 100 µM | SK-MEL-28 > 100 µM | RPMI-8226 > 100 µM | HL-60 62.8 µM | NCI-H226 > 100 µM | IGROV-1 13.5 µM | OVCAR-5 > 100 µM | NCI-H460 > 100 µM | UO-31 > 100 µM | SNB-75 > 100 µM

CN(C)CCCn1c(Cc2ccccc2)nc2cc(C(F)(F)F)ccc21
inactive: MDA-MB-435 15.9 µM | BT-549 29.2 µM | M14 15.5 µM | SK-MEL-5 17.3 µM | OVCAR-3 27.9 µM | SNB-19 24.1 µM | HCT-116 18 µM | NCI-H522 24.4 µM | UACC-257 18.1 µM | SK-MEL-28 19.1 µM | NCI-H226 40.3 µM | IGROV-1 30.2 µM | OVCAR-5 78.7 µM | NCI-H460 19.6 µM | UO-31 1.91 µM | SNB-75 52.8 µM

COC1CC(COCc2ccccc2)CC(OC)O1 (stereo unspecified)
inactive: MDA-MB-435 > 100 µM | M14 > 100 µM | SF-539 > 100 µM | SK-MEL-5 > 100 µM | OVCAR-3 > 100 µM | HCT-116 > 100 µM | HCC 2998 > 100 µM | NCI-H522 > 100 µM | UACC-257 > 100 µM | RPMI-8226 > 100 µM | NCI-H226 > 100 µM | OVCAR-5 > 100 µM | NCI-H460 > 100 µM | UO-31 > 100 µM | SNB-75 > 100 µM
active: HL-60 < 0.01 µM

N#CC(C#N)=c1c2ccccc2c(=C(C#N)C#N)c2ccccc12
inactive: MDA-MB-435 18.4 µM | BT-549 23 µM | M14 17.4 µM | SK-MEL-5 16.7 µM | OVCAR-3 16.3 µM | SNB-19 14.6 µM | HCT-116 17.8 µM | UACC-257 23.1 µM | SK-MEL-28 17.7 µM | RPMI-8226 23.6 µM | HL-60 19.8 µM | NCI-H226 17.7 µM | IGROV-1 12.8 µM | OVCAR-5 20.9 µM | NCI-H460 42.2 µM | SNB-75 18.1 µM

CC(C)CCCC(C)[C@H]1CC[C@H]2N/C(=N/c3ccccc3)CCC[C@]12C (stereo partly specified)
inactive: MDA-MB-435 1.88 µM | BT-549 2.9 µM | M14 1.87 µM | SF-539 1.61 µM | SK-MEL-5 1.27 µM | OVCAR-3 2.29 µM | SNB-19 2.89 µM | HCT-116 2.28 µM | UACC-257 2.12 µM | SK-MEL-28 2.09 µM | RPMI-8226 1.65 µM | HL-60 1.85 µM | NCI-H226 1.86 µM | IGROV-1 1.61 µM | NCI-H460 1.93 µM | UO-31 1.62 µM | SNB-75 1.88 µM
